Tested on: 454973-116-R2-J3-PDC spheroids, percent test/control viability
Assay: Anticancer human tumor 454973-116-R2-J3-PDC patient-derived pancreatic carcinoma cell line growth inhibition [CLK]
Conditions: spheroids with HUVEC and MSC; for IC50: curve of first compound; for viability, T/C: stronger effect = lower value
Procedure, shortened: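 Multi-cell-type spheroids combined patient-derived tumor cells with HUVEC endothelial cells and human mesenchymal stem cells. Paired agents were dosed in half-log steps down from about clinical Cmax, or from 10 microM where Cmax was unknown.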
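Further: spheroids exposed to compounds for 7 days before readout.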

C=CC(=O)Nc1cc(Nc2nccc(-c3cn(C)c4ccccc34)n2)c(OC)cc1N(C)CCN(C)C + CN1CCN(c2cc(C(=O)Nc3cc4cc(-c5cnn(C)c5)ccc4cn3)ccn2)CC1
IC50 (second compound 0.0316 µM): > 0.3 µM
IC50 (second compound 0.1 µM): > 0.3 µM
IC50 (second compound 0.316 µM): < 0.000949 µM
IC50 (second compound 1 µM): < 0.000949 µM
IC50 (second compound 3.16 µM): < 0.000949 µM
IC50 (second compound 10 µM): < 0.000949 µM
viability, T/C (second compound 0.0316 µM, first compound 0.000949 µM): 95.6%
viability, T/C (second compound 0.0316 µM, first compound 0.003 µM): 107%
viability, T/C (second compound 0.0316 µM, first compound 0.00949 µM): 96.8%
viability, T/C (second compound 0.0316 µM, first compound 0.03 µM): 104%
viability, T/C (second compound 0.0316 µM, first compound 0.0949 µM): 102%
viability, T/C (second compound 0.0316 µM, first compound 0.3 µM): 98.3%
viability, T/C (second compound 0.1 µM, first compound 0.000949 µM): 72.8%
viability, T/C (second compound 0.1 µM, first compound 0.003 µM): 76.6%
viability, T/C (second compound 0.1 µM, first compound 0.00949 µM): 77.1%
viability, T/C (second compound 0.1 µM, first compound 0.03 µM): 77.1%
viability, T/C (second compound 0.1 µM, first compound 0.0949 µM): 79%
viability, T/C (second compound 0.1 µM, first compound 0.3 µM): 72%
viability, T/C (second compound 0.316 µM, first compound 0.000949 µM): 1.85%
viability, T/C (second compound 0.316 µM, first compound 0.003 µM): 4.04%
viability, T/C (second compound 0.316 µM, first compound 0.00949 µM): 1.97%
viability, T/C (second compound 0.316 µM, first compound 0.03 µM): 3.67%
viability, T/C (second compound 0.316 µM, first compound 0.0949 µM): 1.83%
viability, T/C (second compound 0.316 µM, first compound 0.3 µM): 1.5%
viability, T/C (second compound 1 µM, first compound 0.000949 µM): 0.13%
viability, T/C (second compound 1 µM, first compound 0.003 µM): 0.14%
viability, T/C (second compound 1 µM, first compound 0.00949 µM): 0.14%
viability, T/C (second compound 1 µM, first compound 0.03 µM): 0.1%
viability, T/C (second compound 1 µM, first compound 0.0949 µM): 0.12%
viability, T/C (second compound 1 µM, first compound 0.3 µM): 0.12%
viability, T/C (second compound 3.16 µM, first compound 0.000949 µM): 0.15%
viability, T/C (second compound 3.16 µM, first compound 0.003 µM): 0.21%
viability, T/C (second compound 3.16 µM, first compound 0.00949 µM): 0.2%
viability, T/C (second compound 3.16 µM, first compound 0.03 µM): 0.2%
viability, T/C (second compound 3.16 µM, first compound 0.0949 µM): 1.74%
viability, T/C (second compound 3.16 µM, first compound 0.3 µM): 0.35%
viability, T/C (second compound 10 µM, first compound 0.000949 µM): 0.31%
viability, T/C (second compound 10 µM, first compound 0.003 µM): 0.26%
viability, T/C (second compound 10 µM, first compound 0.00949 µM): 0.21%
viability, T/C (second compound 10 µM, first compound 0.03 µM): 0.29%
viability, T/C (second compound 10 µM, first compound 0.0949 µM): 2.12%
viability, T/C (second compound 10 µM, first compound 0.3 µM): 2.07%

Nc1ccccc1NC(=O)c1ccc(CNC(=O)OCc2cccnc2)cc1 + CN1CCN(c2cc(C(=O)Nc3cc4cc(-c5cnn(C)c5)ccc4cn3)ccn2)CC1
IC50 (second compound 0.0316 µM): 2.1 µM
IC50 (second compound 0.1 µM): 1.14 µM
IC50 (second compound 0.316 µM): < 0.0316 µM
IC50 (second compound 1 µM): < 0.0316 µM
IC50 (second compound 3.16 µM): < 0.0316 µM
IC50 (second compound 10 µM): < 0.0316 µM
viability, T/C (second compound 0.0316 µM, first compound 0.0316 µM): 95.7%
viability, T/C (second compound 0.0316 µM, first compound 0.1 µM): 92.8%
viability, T/C (second compound 0.0316 µM, first compound 0.316 µM): 89.9%
viability, T/C (second compound 0.0316 µM, first compound 1 µM): 74.2%
viability, T/C (second compound 0.0316 µM, first compound 3.16 µM): 36.7%
viability, T/C (second compound 0.0316 µM, first compound 10 µM): 10.9%
viability, T/C (second compound 0.1 µM, first compound 0.0316 µM): 73.5%
viability, T/C (second compound 0.1 µM, first compound 0.1 µM): 76.7%
viability, T/C (second compound 0.1 µM, first compound 0.316 µM): 60.5%
viability, T/C (second compound 0.1 µM, first compound 1 µM): 57.6%
viability, T/C (second compound 0.1 µM, first compound 3.16 µM): 24.1%
viability, T/C (second compound 0.1 µM, first compound 10 µM): 2.49%
viability, T/C (second compound 0.316 µM, first compound 0.0316 µM): 1.31%
viability, T/C (second compound 0.316 µM, first compound 0.1 µM): 1.59%
viability, T/C (second compound 0.316 µM, first compound 0.316 µM): 0.45%
viability, T/C (second compound 0.316 µM, first compound 1 µM): 2.31%
viability, T/C (second compound 0.316 µM, first compound 3.16 µM): 0.06%
viability, T/C (second compound 0.316 µM, first compound 10 µM): 0.18%
viability, T/C (second compound 1 µM, first compound 0.0316 µM): 0.11%
viability, T/C (second compound 1 µM, first compound 0.1 µM): 0.84%
viability, T/C (second compound 1 µM, first compound 0.316 µM): 0.11%
viability, T/C (second compound 1 µM, first compound 1 µM): 0.08%
viability, T/C (second compound 1 µM, first compound 3.16 µM): 0.05%
viability, T/C (second compound 1 µM, first compound 10 µM): 0.07%
viability, T/C (second compound 3.16 µM, first compound 0.0316 µM): 0.13%
viability, T/C (second compound 3.16 µM, first compound 0.1 µM): 0.33%
viability, T/C (second compound 3.16 µM, first compound 0.316 µM): 0.2%
viability, T/C (second compound 3.16 µM, first compound 1 µM): 0.11%
viability, T/C (second compound 3.16 µM, first compound 3.16 µM): 0.1%
viability, T/C (second compound 3.16 µM, first compound 10 µM): 0.77%
viability, T/C (second compound 10 µM, first compound 0.0316 µM): 0.13%
viability, T/C (second compound 10 µM, first compound 0.1 µM): 0.68%
viability, T/C (second compound 10 µM, first compound 0.316 µM): 0.22%
viability, T/C (second compound 10 µM, first compound 1 µM): 0.29%
viability, T/C (second compound 10 µM, first compound 3.16 µM): 0.22%
viability, T/C (second compound 10 µM, first compound 10 µM): 0.18%
